Reference: patent publication US6642215B2 (Leo Pharma A/S, priority 2001, dated 2003)

Legend:
Type in all cases: cell-based, human
[1] = test system: NF-κB; experiment: EMSA of NF-κB DNA binding activity in nuclear extracts of LPS-stimulated THP-1 cells; conditions: 1 μM compound 24 h
Protocol: EMSA: For preparation of nuclear extracts, 10^7 cells were used at each experimental point. Following treatment of the THP-1 cells with either 1 μM of compound A for 24 h and stimulation with 1 μg/ml LPS at the indicated times, the cells were washed twice in PBS, and the cells were extracted for protein. The cells were resuspended in 500 μl buffer A (20 mM HEPES (pH 7.8), 0.1 mM EDTA, 10 mM KCL) with a protease inhibitor mixture (1 mM DTT, 0.5 mM Pefablock). Afterwards, the cells were incubated on ice for 15 min, then 30 μl 10% NP 40 was added and the cells were centrifuged at 5000×g. Each cell pellet was then resuspended in 50 μl buffer B (buffer A with 400 mM NaCl) and vortexed, followed by incubation for 15 min at 4° C. and centrifugation at 5000×g for 5 min at 4° C. The supernatant from each cell pellet was collected and the protein concentration quantified using the BCA-200 protein assay kit from Pierce (Rockford, Ill., USA). The nuclear extracts were stored at −80° C.
Double-stranded κB oligos (5′-AGTTGAGGGGACTTTCCCAGGC-3′ and the complement strand) were purchased from Promega. […] After electrophoresis at 4° C., the gel was dried, and the protein-DNA complexes were visualized and quantified on the STORM 860 Phospholmager using the ImageQuaNT software (available from Molecular Dynamics).

[2] = test system: IκBα, IκBβ; experiment: Western blotting of LPS-induced IκB degradation in THP-1 cells; conditions: 1 μM compound 24 h before 1 μg/ml LPS for 10 to 30 min, versus DMSO-treated cells
Protocol: Western blotting: THP-1 cells (5×10^6 cells) were starved overnight at 37° C., 5% CO2 in starvation medium (RPMI 1640 with 2% FBS) including 1 μM of compound A or 0.01% DMSO. The cells were hereafter stimulated with 1 μg/ml LPS (E. coli serotype 055: B5, Sigma-Aldrich Danmark AS, Vallensbaek Strand, Denmark) at the indicated times. Whole cell extracts were prepared in lysis buffer (50 mM HEPES, pH 7.5, 150 mM NaCl, 10 mM EDTA, 10 mM Na4P2O7, 100 mM NaF, 2 mM Na3VO4, 1% Triton-X-100, 0.5 mM Pefabloc (Boehringer Mannheim GmbH, Mannheim, Germany), […]).
A 3×SDS-sample buffer (125 mM Tris/HCl pH 6.8, 4% SDS, 20% glycerol, 0.025% bromphenol blue, 10% DTT) was added to 200 μl of clarified cell lysate, and the sample (20 μl) was boiled and electrophoresed on a 12% SDS-polyacrylamide gel. The primary antibodies (anti-IκBα, anti-IκBβ, anti-cdk-7; all from Santa Cruz Biotechnology Inc., Heidelberg, Germany) were diluted 1:1000. The secondary antibody (anti-rabbit-HRP from DAKO A/S, Glostrup, Denmark) was used in a 1:2000 dilution. […] The relative amounts of the transferred proteins were quantified by using the ImageQuant Software (Molecular Dynamics, Sunnyvale, Calif., USA) by scanning the autoradiographic films and normalized to the related cdk-7 amounts.

[3] = test system: NF-κB; experiment: NF-κB-dependent luciferase assay in HT-1080 cells, TNF-α stimulation; conditions: Homo sapiens, compound 24 h before TNF-α 50 ng/ml 6 h, mean ± SD
Protocol: The NF-κB-luciferase reporter plasmid (pBIIX) and pRL-TK control vector described in Example 1 were used for the luciferase assay,
The HT-1080 cells were seeded at a density of 3×10^4 cells/cm^2 in 6 well-plates. The following day, the cells were co-transfected with construct DNA and pRL-TK vector using FuGene Transfection Reagent. A mixture of 10 μl Fugene and 90 μl serum free medium (per well) was prepared and Incubated for 5 min at room temperature. Then, this mixture was transferred to a mixture of construct DNA (1.25 μg per well) and pRL-TK vector (0.25 μg per well), gently mixed, incubated for 15 min at room temperature and added to the cells. The cells were treated at 37° C. with compound A (10^−12−10^−5 M) or DMSO for 24 h before stimulation with TNF-α (50 ng/ml) for 6 h.
The cell lysate was assayed for luciferase activity using the Dual luciferase kit as described by the manufacturer (Promega). All transfections were performed in triplicate. Firefly luciferase activity was corrected for differences in transfection efficiency by normalizing it to the measured Renilla luciferase activity.
NF-κB activity was measured by the luciferase assay described in Example 1.

With `N#CNC(=Nc1ccncc1)NCCCCCCOc1ccc(Cl)cc1` [compound A, N-(6-(4-chlorophenoxy)hexyl)-N′-cyano-N″-(4-pyridyl)guanidine] the “NF-κB DNA-binding activity suppressed compared to the control” value ([1]; after 0.5 to 4 h of LPS-stimulation) was 2 fold, the “NF-κB DNA-binding activity suppressed compared to the control” value ([1]; after 24 h of LPS-stimulation) was 5 fold and the “LPS-induced IκB degradation” value [2] was “much slower rate”. It also gave an IC50 [3] of 2480 ± 775 nM.
